Patent publication US10508086B2 (CANCER RESEARCH TECHNOLOGY LIMITED, priority 2014, dated 2019)

What was measured:
PARG in HeLa cell line = PARG in HeLa cell line (Homo sapiens (Human), UniProt Q86W56); assay: PARG cell assay (nuclear PAR chains after MMS, immunofluorescence); type: cell-based; details: HeLa cells, MMS 50 μg/mL; read-out: PARG Cell IC50 Geomean
Method: This method is based on the detection of endogenous levels of poly (ADP) ribose chains present in the nucleus of HeLa cell line using indirect immunofluorescence. MMS stimulation increases PAR chains for up to 25 mins. After that point, PARG is active and breaks down the PAR chains, until by one hour after stimulation no PAR chains are detectable. Inhibition of PARG maintains PAR chains.
Briefly, following compound treatment and treatment with the DNA damaging agent methylmethanesulfonate (MMS), the cell monolayer is fixed, then permeabilised and incubated with a mouse monoclonal antibody raised against multimers of poly(ADP) ribose. After an overnight incubation, excess antibody is removed by washing and an Alexafluor 488-linked secondary antibody which recognises the mouse monoclonal is added together with a nuclear stain (Hoechst 33342). Images of the cells are then captured and analysed on a High Content Screening platform and the total intensity of the nuclear fluorescent signal at […] is quantified.
HeLa cells, seeded in 384-well plates, at 4000/well in 30 μL RPMI 1640 media, supplemented with 10% FBS and 2 mM Glutamax, were incubated overnight at 37° C., 5% CO2.
The following day, cells were dosed in quadruplicate with compound (10 point dose response) and incubated for 1 h at 37° C., 5% CO2.
At the end of the 1 h dosing period, MMS was added to duplicates at a final concentration of 50 μg/mL, for a further hour.
Media was tipped off and the cells fixed with 50 μL ice-cold 95% MetOH/PBS for 15 mins at −20° C. Following a PBS wash, 50 μL PBS/0.1% Triton was added to the cells for 20 mins. Following another PBS wash, anti-PAR antibody (Calbiochem AM80) was diluted 1:4000 in a buffer (PBS+0.5% FBS+0.05% Tween20) and added to the cells and incubated overnight at 4° C.
The following day, cells were washed three times with PBS and then incubated for 1 hr with secondary antibody (Alexa Fluor® 488 goat anti mouse IgG (H+L)) diluted 1:1000 and Hoechst diluted 1:5000 in buffer (5% FBS in PBS+0.05% Tween20).
Cells were washed three times with PBS and the plate sealed with a light-proof seal.
Images of the cells were captured on a ThermoFisher Celllnsight and the mean total intensity of spots fluorescent at 485 nm in the nucleus was reported.

Human Full Length PARG = Human Full Length PARG (Homo sapiens (Human), UniProt Q86W56); assay: PARG in vitro enzyme assay (TR-FRET); type: biochemical; details: read-out: PARG_EC50_ENZYME
Sequence of Human Full Length PARG (Q86W56 whole entry): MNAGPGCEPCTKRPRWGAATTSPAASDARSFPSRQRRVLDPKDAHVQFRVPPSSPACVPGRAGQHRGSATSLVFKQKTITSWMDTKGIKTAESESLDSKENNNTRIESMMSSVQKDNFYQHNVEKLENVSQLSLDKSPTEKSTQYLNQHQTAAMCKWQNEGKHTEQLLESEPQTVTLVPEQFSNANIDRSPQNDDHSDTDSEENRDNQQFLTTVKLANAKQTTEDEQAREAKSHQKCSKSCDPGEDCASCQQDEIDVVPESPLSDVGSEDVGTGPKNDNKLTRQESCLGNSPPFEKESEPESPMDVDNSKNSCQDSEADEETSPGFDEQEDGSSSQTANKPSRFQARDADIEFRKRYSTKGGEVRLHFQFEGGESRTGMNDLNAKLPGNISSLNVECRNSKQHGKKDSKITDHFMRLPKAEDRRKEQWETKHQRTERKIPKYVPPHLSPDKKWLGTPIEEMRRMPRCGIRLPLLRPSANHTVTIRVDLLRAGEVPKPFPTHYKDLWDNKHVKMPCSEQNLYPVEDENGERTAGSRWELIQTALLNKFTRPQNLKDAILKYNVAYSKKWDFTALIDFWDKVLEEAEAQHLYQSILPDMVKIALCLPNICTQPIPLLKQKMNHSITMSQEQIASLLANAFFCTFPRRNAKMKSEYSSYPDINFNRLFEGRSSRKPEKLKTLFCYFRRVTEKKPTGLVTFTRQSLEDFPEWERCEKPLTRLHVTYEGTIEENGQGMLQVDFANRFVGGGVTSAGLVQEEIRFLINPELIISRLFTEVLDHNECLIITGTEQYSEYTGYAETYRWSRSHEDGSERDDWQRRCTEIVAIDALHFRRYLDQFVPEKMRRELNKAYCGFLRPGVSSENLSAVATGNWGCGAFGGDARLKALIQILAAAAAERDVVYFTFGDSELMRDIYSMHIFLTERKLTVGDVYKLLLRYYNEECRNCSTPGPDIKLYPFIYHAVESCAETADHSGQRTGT
Outline: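 Full-length human PARG ([…]) incubated with ribosylated PARP substrate (4.5 nM) for 10 min at room temperature in Tris pH 7.4 buffer with EDTA, EGTA, DTT, KCl. Detection by TR-FRET using anti-6HIS XL665 (14 nM final) and streptavidin europium cryptate (0.75 nM final) after 60 min; Em665/Em620 ratio converted to percent inhibition.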

Sequence of PARG in HeLa cell line (Q86W56 whole entry): as above

Row | IC50 (PARG in HeLa cell line) [nM] | EC50 (Human Full Length PARG) [nM] | SMILES
1 | 104 | 90 | COCCn1c(=O)n(-c2nnc(C(F)F)s2)c2cc(S(=O)(=O)NC3(CF)CC3)ccc21 [Example 163, 3-[5-(Difluoromethyl)-1,3,4-thiadiazol-2-yl]-N-[1-(fluoromethyl)cyclopropyl]-1-(2-methoxyethyl)-2-oxo-benzimidazole-5-sulfonamide]
2 | 109 | 203 | Cc1cc(Cn2c(=O)n(-c3nnc(C(F)F)s3)c3cc(S(=O)(=O)NC4(CF)CC4)ccc32)n(C)n1 [Example 164, 3-[5-(Difluoromethyl)-1,3,4-thiadiazol-2-yl]-1-[(2,5-dimethylpyrazol-3-yl)methyl]-N-[1-(fluoromethyl)cyclopropyl]-2-oxo-benzimidazole-5-sulfonamide]
3 | 127 | 234 | Cc1cc(Cn2c(=O)n(-c3nnc(C(F)F)s3)c3cc(S(=O)(=O)NC4(C#N)CC4)ccc32)n(C)n1 [Example 165, N-(1-Cyanocyclopropyl)-3-[5-(difluoromethyl)-1,3,4-thiadiazol-2-yl]-1-[(2,5-dimethylpyrazol-3-yl)methyl]-2-oxo-benzimidazole-5-sulfonamide]
4 | 291 | 784 | Cc1nnc(-n2c(=O)n(CC#N)c3ccc(S(=O)(=O)NC4(C)CC4)cc32)s1 [Example 166, 1-(Cyanomethyl)-N-(1-methylcyclopropyl)-3-(5-methyl-1,3,4-thiadiazol-2-yl)-2-oxo-benzimidazole-5-sulfonamide]
5 | 46 | 74 | COCCn1c(=O)n(-c2nnc(C(F)F)s2)c2cc(S(=O)(=O)NC3(CF)CC3)c(F)cc21 [Example 167, 3-[5-(Difluoromethyl)-1,3,4-thiadiazol-2-yl]-6-fluoro-N-[1-(fluoromethyl)cyclopropyl]-1-(2-methoxyethyl)-2-oxo-benzimidazole-5-sulfonamide]
6 | 32 | 99 | COCCn1c(=O)n(-c2nnc(C(F)F)s2)c2cc(S(=O)(=O)NC3(C)CC3)c(F)cc21 [Example 168, 3-[5-(Difluoromethyl)-1,3,4-thiadiazol-2-yl]-6-fluoro-1-(2-methoxyethyl)-N-(1-methylcyclopropyl)-2-oxo-benzimidazole-5-sulfonamide]
7 | 36 | 355 | COCCn1c(=O)n(-c2nnc(C(F)F)s2)c2cc(S(=O)(=O)NC3(C)CC3)ccc21 [Example 169, 3-[5-(Difluoromethyl)-1,3,4-thiadiazol-2-yl]-1-(2-methoxyethyl)-N-(1-methylcyclopropyl)-2-oxo-benzimidazole-5-sulfonamide]
8 | 89 | 92 | CN(C)CCCn1c(=O)n(-c2nnc(C(F)F)s2)c2cc(S(=O)(=O)NC3(CF)CC3)ccc21 [Example 170, 3-[5-(Difluoromethyl)-1,3,4-thiadiazol-2-yl]-1-[3-(dimethylamino)propyl]-N-[1-(fluoromethyl)cyclopropyl]-2-oxo-benzimidazole-5-sulfonamide]
9 | 1550 | 7110 | Cc1nsc(-n2c(=O)n(C)c3cc(F)c(S(=O)(=O)NC4(C)CC4)cc32)n1 [Example 171, 6-Fluoro-1-methyl-N-(1-methylcyclopropyl)-3-(3-methyl-1,2,4-thiadiazol-5-yl)-2-oxo-benzimidazole-5-sulfonamide]
10 | 2090 | 12000 | Cc1nsc(-n2c(=O)n(C)c3cc(F)c(S(=O)(=O)NC4(CF)CC4)cc32)n1 [Example 172, 6-Fluoro-N-[1-(fluoromethyl)cyclopropyl]-1-methyl-3-(3-methyl-1,2,4-thiadiazol-5-yl)-2-oxo-benzimidazole-5-sulfonamide]
11 | 64 | 141 | Cn1c(=O)n(-c2nnc(C(F)F)s2)c2cc(S(=O)(=O)NC3(C)CC3)c(F)cc21 [Example 173, 3-[5-(Difluoromethyl)-1,3,4-thiadiazol-2-yl]-6-fluoro-1-methyl-N-(1-methylcyclopropyl)-2-oxo-benzimidazole-5-sulfonamide]
12 | 551 | 250 | Cn1c(=O)n(-c2ncns2)c2cc(S(=O)(=O)NC3(CF)CC3)ccc21 [Example 175, N-[1-(Fluoromethyl)cyclopropyl]-1-methyl-2-oxo-3-(1,2,4-thiadiazol-5-yl)benzimidazole-5-sulfonamide]
13 | 1790 | 6020 | Cc1nsc(-n2c(=O)n(C)c3ccc(S(=O)(=O)NC4(C)CC4)cc32)n1 [Example 176, 1-Methyl-N-(1-methylcyclopropyl)-3-(3-methyl-1,2,4-thiadiazol-5-yl)-2-oxo-benzimidazole-5-sulfonamide]
14 | 903 | 682 | Cc1nnc(-n2c(=O)n(CC#N)c3ccc(S(=O)(=O)NC4(CF)CC4)cc32)s1 [Example 178, 1-(Cyanomethyl)-N-[1-(fluoromethyl)cyclopropyl]-3-(5-methyl-1,3,4-thiadiazol-2-yl)-2-oxo-benzimidazole-5-sulfonamide]
15 | 1160 | 1150 | Cc1nsc(-n2c(=O)n(CC#N)c3ccc(S(=O)(=O)NC4(C)CC4)cc32)n1 [Example 179, 1-(Cyanomethyl)-N-(1-methylcyclopropyl)-3-(3-methyl-1,2,4-thiadiazol-5-yl)-2-oxo-benzimidazole-5-sulfonamide]
16 | 1930 | 1130 | Cc1nsc(-n2c(=O)n(CC#N)c3ccc(S(=O)(=O)NC4(CF)CC4)cc32)n1 [Example 180, 1-(Cyanomethyl)-N-[1-(fluoromethyl)cyclopropyl]-3-(3-methyl-1,2,4-thiadiazol-5-yl)-2-oxo-benzimidazole-5-sulfonamide]
17 | 109 | 291 | Cn1c(=O)n(-c2nnc(C(F)F)s2)c2cc(S(=O)(=O)NC3(CF)CC3)ccc21 [Example 181, 3-[5-(Difluoromethyl)-1,3,4-thiadiazol-2-yl]-N-[1-(fluoromethyl)cyclopropyl]-1-methyl-2-oxo-benzimidazole-5-sulfonamide]
18 | 537 | 309 | COCCn1c(=O)n(-c2nc(C)ns2)c2cc(S(=O)(=O)NC3(C)CC3)ccc21 [Example 182, 1-(2-Methoxyethyl)-N-(1-methylcyclopropyl)-3-(3-methyl-1,2,4-thiadiazol-5-yl)-2-oxo-benzimidazole-5-sulfonamide]
19 | 376 | 549 | COCCn1c(=O)n(-c2ncns2)c2cc(S(=O)(=O)NC3(CF)CC3)ccc21 [Example 183, N-[1-(Fluoromethyl)cyclopropyl]-1-(2-methoxyethyl)-2-oxo-3-(1,2,4-thiadiazol-5-yl)benzimidazole-5-sulfonamide]
20 | 701 | 1390 | COCCn1c(=O)n(-c2nc(C)ns2)c2cc(S(=O)(=O)NC3(CF)CC3)ccc21 [Example 184, N-[1-(Fluoromethyl)cyclopropyl]-1-(2-methoxyethyl)-3-(3-methyl-1,2,4-thiadiazol-5-yl)-2-oxo-benzimidazole-5-sulfonamide]
21 | 740 | 3780 | COCCCn1c(=O)n(-c2nc(C)ns2)c2cc(S(=O)(=O)NC3(CF)CC3)ccc21 [Example 185, N-[1-(Fluoromethyl)cyclopropyl]-1-(3-methoxypropyl)-3-(3-methyl-1,2,4-thiadiazol-5-yl)-2-oxo-benzimidazole-5-sulfonamide]
